Test [1] concerns the target T1, Cytochrome P450 3A4 (Homo sapiens, UniProt P08684). Nature of the test: Inhibition of CYP3A4. It is filed as ADME.
The target of test [2] is T2, Steroid 17-alpha-hydroxylase/17,20 lyase (Homo sapiens, UniProt P05093).
T2 sequence (P05093 whole entry): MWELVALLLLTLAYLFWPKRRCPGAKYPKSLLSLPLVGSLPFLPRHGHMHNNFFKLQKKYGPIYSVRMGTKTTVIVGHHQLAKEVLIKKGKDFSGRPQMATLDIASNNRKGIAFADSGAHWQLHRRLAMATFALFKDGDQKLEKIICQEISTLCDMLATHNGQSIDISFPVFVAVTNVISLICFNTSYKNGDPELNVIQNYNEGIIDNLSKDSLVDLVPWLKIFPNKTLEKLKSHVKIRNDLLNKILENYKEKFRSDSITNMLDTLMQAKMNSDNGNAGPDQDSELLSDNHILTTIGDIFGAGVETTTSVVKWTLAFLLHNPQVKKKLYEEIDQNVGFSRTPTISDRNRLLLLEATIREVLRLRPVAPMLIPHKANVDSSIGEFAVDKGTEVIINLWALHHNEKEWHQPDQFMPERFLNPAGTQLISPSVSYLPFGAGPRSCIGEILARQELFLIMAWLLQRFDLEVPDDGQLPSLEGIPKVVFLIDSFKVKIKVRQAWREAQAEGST
Nature of the test: Inhibition of 17,20-lyase activity of human CYP17A1.

Test [3] concerns the target T3, Steroid 17-alpha-hydroxylase/17,20 lyase (Rattus norvegicus, UniProt P11715).
T3 sequence (P11715 whole entry): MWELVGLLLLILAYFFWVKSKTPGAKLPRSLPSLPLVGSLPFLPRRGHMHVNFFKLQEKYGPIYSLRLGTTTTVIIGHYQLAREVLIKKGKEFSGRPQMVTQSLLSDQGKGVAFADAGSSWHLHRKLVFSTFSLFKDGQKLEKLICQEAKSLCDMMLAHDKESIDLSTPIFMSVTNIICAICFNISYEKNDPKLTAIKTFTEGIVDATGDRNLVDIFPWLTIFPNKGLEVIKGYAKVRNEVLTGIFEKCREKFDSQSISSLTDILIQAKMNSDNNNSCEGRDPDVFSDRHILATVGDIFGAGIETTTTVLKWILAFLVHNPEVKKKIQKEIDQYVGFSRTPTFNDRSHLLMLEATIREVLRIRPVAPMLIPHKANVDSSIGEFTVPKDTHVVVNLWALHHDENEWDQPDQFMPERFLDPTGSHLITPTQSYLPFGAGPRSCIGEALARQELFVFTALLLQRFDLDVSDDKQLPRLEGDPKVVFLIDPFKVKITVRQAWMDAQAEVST
Nature of the test: Inhibition of 17,20-lyase activity of Sprague-Dawley rat testicular microsomal CYP17A1 using [1,2-3H]-17a-hydroxyprogesterone as substrate after 15 mins by TLC analysis. Also on record: species or system Testis.

Test [4] concerns Cynomolgus monkey. Nature of the test: Reduction of serum testosterone level in cynomolgus monkey at 1 mg/kg, po after 8 hrs by radioimmunoassay (reference value: 296 +/- 277%). It is filed as functional, Macaca fascicularis. Set-up: scale not given: the % may be the effect or the level left.
Test [5] has as its system Cynomolgus monkey. Nature of the test: Reduction of serum DHEA level in cynomolgus monkey at 1 mg/kg, po after 8 hrs by radioimmunoassay (reference value: 25 +/- 6.2%). The format is functional, Macaca fascicularis. Also on record: scale not given: the % may be the effect or the level left.
Test [6] can be described thus: Inhibition of Sprague-Dawley rat adrenal gland 11-hydroxylase using [1,2-3H]-hydroxy-11-deoxycorticosterone as substrate after 30 mins by TLC analysis. The format is tissue-based.
Test [7] has as its target T1, Cytochrome P450 3A4. Nature of the test: Inhibition of recombinant human CYP3A4 assessed as conversion of testosterone into 6-hydroxytestosterone after 30 mins by HPLC analysis. The format is ADME.
Test [8] addresses T2, Steroid 17-alpha-hydroxylase/17,20 lyase. Nature of the test: Inhibition of 17,20-lyase of recombinant human CYP17A1 using [1,2-3H]-17a-hydroxypregnenolone as substrate after 15 mins by TLC analysis.
For test [9], the system named is Cynomolgus monkey. Nature of the test: Reduction of serum DHEA level in cynomolgus monkey at 1 mg/kg, po after 10 hrs by radioimmunoassay (reference value: 7.2 +/- 0.99%). Also on record: scale not given: the % may be the effect or the level left. The format is functional, Macaca fascicularis.
The target of test [10] is T4, Cytochrome P450 1A2 (Homo sapiens, UniProt P05177).
T4 sequence (P05177 whole entry): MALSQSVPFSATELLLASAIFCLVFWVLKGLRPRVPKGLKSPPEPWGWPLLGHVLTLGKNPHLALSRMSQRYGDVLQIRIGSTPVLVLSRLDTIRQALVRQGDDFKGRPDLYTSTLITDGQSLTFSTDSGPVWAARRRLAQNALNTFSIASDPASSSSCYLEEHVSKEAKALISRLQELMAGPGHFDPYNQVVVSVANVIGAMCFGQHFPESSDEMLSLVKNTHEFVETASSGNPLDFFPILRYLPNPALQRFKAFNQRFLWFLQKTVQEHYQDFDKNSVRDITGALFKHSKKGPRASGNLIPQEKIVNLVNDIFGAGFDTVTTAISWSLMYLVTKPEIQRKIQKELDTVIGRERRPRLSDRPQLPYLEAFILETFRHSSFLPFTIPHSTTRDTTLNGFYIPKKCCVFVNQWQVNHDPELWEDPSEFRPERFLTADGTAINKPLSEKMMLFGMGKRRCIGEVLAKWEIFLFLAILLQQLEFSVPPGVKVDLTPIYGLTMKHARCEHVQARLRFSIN
Nature of the test: Inhibition of human B-lymphoblastoid cell microsomal CYP1A2 assessed as 7-ethoxyresorufin O-deethylation preincubated for 5 mins with substrate. The format is ADME.

Test [11] concerns Cynomolgus monkey. Nature of the test: Reduction of serum DHEA level in cynomolgus monkey at 1 mg/kg, po after 2 hrs by radioimmunoassay (reference value: 97.9 +/- 22.3%). It is filed as functional, Macaca fascicularis. Set-up: scale not given: the % may be the effect or the level left.
Test [12] deals with Cynomolgus monkey. Nature of the test: Reduction of serum DHEA level in cynomolgus monkey at 1 mg/kg, po after 8 hrs by radioimmunoassay (reference value: 54 +/- 25%). The format is functional, Macaca fascicularis. Also on record: scale not given: the % may be the effect or the level left.
The test system of test [13] is Cynomolgus monkey. Nature of the test: Reduction of serum testosterone level in cynomolgus monkey at 1 mg/kg, po after 8 hrs by radioimmunoassay (reference value: 101 +/- 54%). The format is functional, Macaca fascicularis. Set-up: scale not given: the % may be the effect or the level left.
Test [14] deals with T5, Cytochrome P450 2C8 (Homo sapiens, UniProt P10632).
T5 sequence (P10632 whole entry): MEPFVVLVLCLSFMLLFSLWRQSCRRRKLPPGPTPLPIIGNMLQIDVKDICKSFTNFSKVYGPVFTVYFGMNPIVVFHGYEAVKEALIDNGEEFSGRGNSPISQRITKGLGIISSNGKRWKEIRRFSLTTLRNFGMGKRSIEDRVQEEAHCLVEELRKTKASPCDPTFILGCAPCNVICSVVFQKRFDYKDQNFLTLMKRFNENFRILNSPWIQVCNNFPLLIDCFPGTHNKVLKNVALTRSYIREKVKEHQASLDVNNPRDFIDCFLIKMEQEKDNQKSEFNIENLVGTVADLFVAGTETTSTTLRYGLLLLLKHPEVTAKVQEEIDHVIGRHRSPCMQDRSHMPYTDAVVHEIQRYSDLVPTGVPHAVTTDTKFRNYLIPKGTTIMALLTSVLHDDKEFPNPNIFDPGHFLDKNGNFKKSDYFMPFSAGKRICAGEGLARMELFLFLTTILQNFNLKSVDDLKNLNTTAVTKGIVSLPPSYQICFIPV
Nature of the test: Inhibition of human B-lymphoblastoid cell microsomal CYP2C8 assessed as Tolbutamide hydroxylation preincubated for 5 mins with substrate. It is filed as ADME.

In test [15] the target is Cytochrome P450 2D6 (Homo sapiens, UniProt P10635). Nature of the test: Inhibition of human B-lymphoblastoid cell microsomal CYP2D6 assessed as (+)-bufuralol 1'-hydroxylation preincubated for 5 mins with substrate. The format is ADME.
Cytochrome P450 2D6, sequence (P10635 whole entry): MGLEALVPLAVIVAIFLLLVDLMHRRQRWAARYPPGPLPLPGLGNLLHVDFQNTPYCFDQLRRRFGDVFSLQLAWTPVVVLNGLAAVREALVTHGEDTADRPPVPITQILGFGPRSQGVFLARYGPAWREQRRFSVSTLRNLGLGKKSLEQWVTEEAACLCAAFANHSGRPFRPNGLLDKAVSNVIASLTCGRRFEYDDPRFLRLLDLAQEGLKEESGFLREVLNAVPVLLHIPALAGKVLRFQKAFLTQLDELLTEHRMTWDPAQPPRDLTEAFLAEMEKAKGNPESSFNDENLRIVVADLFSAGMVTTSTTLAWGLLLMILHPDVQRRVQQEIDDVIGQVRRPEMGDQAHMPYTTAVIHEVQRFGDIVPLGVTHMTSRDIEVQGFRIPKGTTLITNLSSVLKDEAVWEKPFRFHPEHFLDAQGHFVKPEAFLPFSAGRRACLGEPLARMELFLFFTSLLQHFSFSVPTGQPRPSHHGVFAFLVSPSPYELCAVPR
For test [16], the system named is Cynomolgus monkey. Nature of the test: Reduction of serum DHEA level in cynomolgus monkey at 1 mg/kg, po after 5 hrs by radioimmunoassay (reference value: 88.6 +/- 4.4%). It is filed as functional, Macaca fascicularis. Also on record: scale not given: the % may be the effect or the level left.
In test [17] the test system is Cynomolgus monkey. Nature of the test: Reduction of serum testosterone level in cynomolgus monkey at 1 mg/kg, po after 10 hrs by radioimmunoassay (reference value: 269.8 +/- 94.5%). The format is functional, Macaca fascicularis. Set-up: scale not given: the % may be the effect or the level left.
Test [18] relates to Cynomolgus monkey. Nature of the test: Reduction of serum testosterone level in cynomolgus monkey at 1 mg/kg, po after 2 hrs by radioimmunoassay (reference value: 90 +/- 16.6%). The format is functional, Macaca fascicularis. Also on record: scale not given: the % may be the effect or the level left.
The test system of test [19] is Cynomolgus monkey. Nature of the test: Reduction of serum testosterone level in cynomolgus monkey at 1 mg/kg, po after 5 hrs by radioimmunoassay (reference value: 63 +/- 19.2%). The format is functional, Macaca fascicularis. Set-up: scale not given: the % may be the effect or the level left.

SMILES strings stand for the structures.

T1 sequence (P08684 whole entry): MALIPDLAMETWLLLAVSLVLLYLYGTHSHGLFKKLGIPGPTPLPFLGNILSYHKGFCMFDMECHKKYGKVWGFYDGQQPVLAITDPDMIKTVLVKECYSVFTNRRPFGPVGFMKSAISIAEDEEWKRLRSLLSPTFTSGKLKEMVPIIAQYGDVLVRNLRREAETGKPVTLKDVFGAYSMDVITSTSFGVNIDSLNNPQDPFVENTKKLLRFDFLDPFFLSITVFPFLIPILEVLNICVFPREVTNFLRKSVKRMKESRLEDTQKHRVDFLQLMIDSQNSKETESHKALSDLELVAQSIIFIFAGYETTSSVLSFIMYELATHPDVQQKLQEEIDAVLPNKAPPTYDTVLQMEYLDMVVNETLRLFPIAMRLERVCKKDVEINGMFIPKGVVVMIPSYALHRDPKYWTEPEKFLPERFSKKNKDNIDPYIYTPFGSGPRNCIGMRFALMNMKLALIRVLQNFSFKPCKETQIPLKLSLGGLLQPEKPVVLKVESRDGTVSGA

Broadly, the IC50 is the concentration that gives 50% inhibition. Consider `CNC(=O)c1ccc2cc([C@](O)(c3c[nH]cn3)C(C)C)ccc2c1`, for which the IC50 in test [1] stood at 7800 nM; in [2], 5.5 nM.
Take `CNC(=O)c1ccc2cc([C@]3(O)CCn4cncc43)ccc2c1`: the IC50 in [3] was 180 nM; in test [6] it was greater than 1000 nM. Also, the results for the Activity in test [4] and in test [5] were 258% and 91%, respectively.
In turn, `CNC(=O)c1ccc2cc(C(O)(c3c[nH]cn3)C(C)C)ccc2c1` (racemic) had a concentration for half-maximal inhibition (IC50) in [6] greater than 1000 nM.
As to `CNC(=O)c1ccc2cc(C3(O)CCn4cncc43)ccc2c1` (racemic), the IC50 in test [6] was greater than 1000 nM.
Consider `CNC(=O)c1ccc2cc(C3(O)c4cncn4CC3(C)C)ccc2c1` (racemic), for which the IC50 in test [3] turned out to be 110 nM; in test [7], 3200 nM; in test [8] it was 88 nM; in [6], 520 nM.
`CNC(=O)c1ccc2cc(C3CCn4cncc43)ccc2c1` (racemic): the 50% inhibitory concentration (IC50) in test [3] was 15 nM; in test [7], less than 1000 nM; in [8] it was 13 nM; in test [6], 290 nM.
In the case of `CNC(=O)c1ccc2cc(C(C)(O)c3cncn3C)ccc2c1` (racemic), the IC50 in test [3] is greater than 1000 nM; in [7], 6900 nM; in [8], 410 nM; in [6] it was greater than 1000 nM.
`NC(=O)c1ccc2cc(C3(O)CCn4cncc43)ccc2c1` (racemic): the IC50 was 24 nM in test [3], greater than 10000 nM in [7], 29 nM in [8] and 100 nM in test [6].
The matching figures for `CCNC(=O)c1ccc2cc(C3(O)CCn4cncc43)ccc2c1` (racemic): 110 nM, greater than 10000 nM, 190 nM and greater than 1000 nM.
As for `O=C(NC1CC1)c1ccc2cc(C3(O)CCn4cncc43)ccc2c1` (racemic), the IC50 in [3] was 100 nM; in [7], greater than 10000 nM; in test [8], 290 nM; in [6], greater than 1000 nM.
With `CC(C)NC(=O)c1ccc2cc(C3(O)CCn4cncc43)ccc2c1` (racemic), the IC50 in [3] is 160 nM; in test [7] it was greater than 10000 nM; in [8], 400 nM; in [6], greater than 1000 nM.
Take `CNC(=O)c1ccc2cc([C@@]3(O)CCn4cncc43)ccc2c1` [ORTERONEL]: the Activity in test [9] is recorded as 7.6%; in test [11] it was 61.1%; in test [12], 12%; in test [13] it was 30%; in test [16] it was 32.8%; in [17] it was 55.6%. Further, the Activity in [18] is 75.9%; in test [19], 14.2%. For the same compound, the concentration for half-maximal inhibition (IC50) was 48 nM in [3]; 28000 nM in test [10]; greater than 30000 nM in test [14]; greater than 30000 nM in test [15]; greater than 1000 nM in [6].
